This note sets out measurements from US20160130278A1 (TAISHO PHARMACEUTICAL CO., LTD, priority 2013, published 2016).

The test concerns the target T1, human type 1 glycine transporter (GlyT1) (Homo sapiens, UniProt P48067).
T1 construct: T98G cells (glioma cells) expressing human type 1 glycine transporter (GlyT1) were used
T1 sequence (P48067 1-706): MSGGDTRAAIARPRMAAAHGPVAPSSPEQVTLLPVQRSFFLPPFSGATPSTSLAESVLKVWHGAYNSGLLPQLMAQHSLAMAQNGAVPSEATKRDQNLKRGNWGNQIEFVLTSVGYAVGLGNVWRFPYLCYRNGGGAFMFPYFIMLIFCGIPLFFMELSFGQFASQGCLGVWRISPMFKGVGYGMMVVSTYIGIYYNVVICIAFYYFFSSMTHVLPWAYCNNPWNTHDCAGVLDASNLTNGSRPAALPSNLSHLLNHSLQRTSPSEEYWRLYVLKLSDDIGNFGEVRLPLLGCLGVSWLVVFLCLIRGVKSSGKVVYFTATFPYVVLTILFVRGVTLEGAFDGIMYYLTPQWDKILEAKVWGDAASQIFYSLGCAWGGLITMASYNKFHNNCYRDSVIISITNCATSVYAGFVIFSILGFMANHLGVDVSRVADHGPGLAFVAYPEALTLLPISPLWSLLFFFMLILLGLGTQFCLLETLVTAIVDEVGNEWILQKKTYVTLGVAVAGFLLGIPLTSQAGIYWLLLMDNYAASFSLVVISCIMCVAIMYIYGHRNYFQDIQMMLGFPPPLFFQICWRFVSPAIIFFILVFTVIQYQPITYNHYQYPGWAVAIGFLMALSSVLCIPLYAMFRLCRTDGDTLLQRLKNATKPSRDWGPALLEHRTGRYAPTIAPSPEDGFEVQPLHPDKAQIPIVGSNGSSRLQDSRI
The experiment in a line: Glycine uptake inhibition experiment ([3H]glycine uptake). Type of test: cell-based. How it is done: Glycine Uptake Inhibition Experiment
A glycine uptake experiment was conducted in accordance with the method published in Neuron, 8, 927-935, 1992. In the experiment, T98G cells (glioma cells) expressing human type 1 glycine transporter (GlyT1) were used. The T98G cells were seeded in a 96-well plate at 2.0×10^4 cells/well and cultured overnight in a CO2 incubator. The test substance was dissolved in a 100% DMSO solution and then dissolved in a 10 mM HEPES buffer solution (pH 7.4) containing 150 mM sodium chloride, 1 mM calcium chloride, 5 mM potassium chloride, 1 mM magnesium chloride, 10 mM glucose and 0.2% bovine serum albumin. After removing the cell culture medium, the test substance was subjected to a 10-min pretreatment. Subsequently, the test substance and [^3H] glycine (final concentration: 250 nM) were added to the cells and reaction was performed at room temperature for 15 minutes. After the end of the reaction, the extracellular fluid was aspirated with a manifold to remove excess labeled glycine present outside the cells, and then the cells were lysed with a 0.5 M aqueous sodium hydroxide solution. The glycine content in the cells was determined by measuring the radioactivity in the cell lysate with a liquid scintillation counter. Glycine uptake in the presence of 10 μM ALX5407 was defined as non-specific uptake, and the value calculated by subtracting the amount of the non-specific uptake from the total uptake in the absence of 10 μM ALX5407 was defined as specific uptake. In addition, glycine uptake inhibitory activity (IC50 value) was calculated from an inhibition curve at the concentrations of each test substance ranging from 10^−9 to 10^−5 M. It should be noted that ALX5407 is an HCl salt of N-[(3R)-3-([1,1′-biphenyl]-4-yloxy)-3-(4-fluorophenyl)propyl]-N-methylglycine.

In the case of `O=C(NC(c1cccnc1Cl)[C@]1(O)CC[C@@H](F)CC1)c1nccc(C(F)(F)F)c1Cl` (single isomer, unassigned) [Compound 273, 3-chloro-N-[(2-chloropyridin-3-yl)(cis-4-fluoro-1-hydroxycyclohexyl)methyl]-4-(trifluoromethyl)pyridine-2-carboxamide], half-maximal inhibition (GlyT1) (IC50) was put at 330 nM.

For `O=C(NC(c1cc(Cl)cc(Cl)c1)C1(O)CCCC1)c1nccc(C(F)(F)F)c1Cl` (stereo not drawn) [Compound 111, 3-chloro-N-[(3,5-dichlorophenyl)(1-hydroxycyclopentyl)methyl]-4-(trifluoromethyl)pyridine-2-carboxamide], the half-inhibitory concentration (IC50) (GlyT1) came out at 220 nM. As for `O=C(NC(c1ccc(F)cc1)C1(O)CCCC1)c1nccc(C(F)(F)F)c1Cl` (single isomer, unassigned) [Compound 59, 3-chloro-N-[(4-fluorophenyl)(1-hydroxycyclopentyl)methyl]-4-(trifluoromethyl)pyridine-2-carboxamide], the midpoint of inhibition (GlyT1), the IC50, lay at 9500 nM.

With `O=C(NC(c1cccc(F)c1Cl)[C@]1(O)CC[C@@H](F)CC1)c1ccnc(C(F)(F)F)c1Cl` (single isomer, unassigned) [Compound 223, 3-chloro-N-[(2-chloro-3-fluorophenyl)(cis-4-fluoro-1-hydroxycyclohexyl)methyl]-2-(trifluoromethyl)pyridine-4-carboxamide], the half-inhibitory concentration (IC50) (GlyT1) is 56 nM. `O=C(NC(c1cccc(F)c1)C1(O)CCCC1)c1cccc(C(F)(F)F)c1Cl` (single isomer, unassigned) [Compound 73, 2-chloro-N-[(3-fluorophenyl)(1-hydroxycyclopentyl)methyl]-3-(trifluoromethyl)benzamide] had a concentration for half-maximal inhibition (IC50) (GlyT1) of 220 nM. `[2H]C1([2H])C([2H])([2H])C([2H])([2H])C(O)(C(NC(=O)c2nccc(C(F)(F)F)c2Cl)c2cccc(Cl)c2)C([2H])([2H])C1([2H])[2H]` (single isomer, unassigned) [Compound 232, 3-chloro-N-{(3-chlorophenyl)[1-hydroxy(^2H10)cyclohexyl]methyl}-4-(trifluoromethyl)pyridine-2-carboxamide] displayed an IC50 (GlyT1) of 1400 nM. The molecule `CCn1cc(-c2cccc(C(NC(=O)c3cccc(OC)c3Cl)C3(O)CCC(F)(F)CC3)c2)cn1` (stereo not drawn) [Compound 207, 2-chloro-N-{(4,4-difluoro-1-hydroxycyclohexyl)[3-(1-ethyl-1H-pyrazol-4-yl)phenyl]methyl}-3-methoxybenzamide] returned an IC50 (GlyT1) of 8800 nM. Same read-out and setting: the same measure for `N#Cc1cccc([C@H](NC(=O)c2nccc(C(F)(F)F)c2Cl)C2(O)CCCC2)c1` [Compound 37, 3-chloro-N-[(S)-(3-cyanophenyl)(1-hydroxycyclopentyl)methyl]-4-(trifluoromethyl)pyridine-2-carboxamide]: 260 nM; for `O=C(NC(c1cccc(F)c1Cl)[C@]1(O)CC[C@@H](F)CC1)c1cnnc2ccccc12` (single isomer, unassigned) [Compound 259, N-[(2-chloro-3-fluorophenyl)(cis-4-fluoro-1-hydroxycyclohexyl)methyl]cinnoline-4-carboxamide]: 1000 nM. As to `CCn1cc(-c2cccc(C(NC(=O)c3cccc(C)c3Cl)C3(O)CCC(F)(F)CC3)c2)cn1` (single isomer, unassigned) [Compound 151, 2-chloro-N-{(4,4-difluoro-1-hydroxycyclohexyl)[3-(1-ethyl-1H-pyrazol-4-yl)phenyl]methyl}-3-methylbenzamide], the IC50 (GlyT1) was 3300 nM. Regarding `CCn1cc(-c2cccc(C(NC(=O)c3cccc(C(F)(F)F)c3Cl)C3(O)CCC(F)(F)CC3)c2)cn1` (stereo not drawn) [Compound 118, 2-chloro-N-{(4,4-difluoro-1-hydroxycyclohexyl)[3-(1-ethyl-1H-pyraozl-4-yl)phenyl]methyl}-3-(trifluoromethyl)benzamide], where the note is “GlyT1”, the half-inhibitory concentration (IC50) was found to be 260 nM. Under “GlyT1”, `O=C(NC(c1cccc(Br)c1)C1(O)CCC(F)(F)CC1)c1nccc(C(F)(F)F)c1Cl` (stereo not drawn) [Compound 85, N-[(3-bromophenyl)(4,4-difluoro-1-hydroxycyclohexyl)methyl]-3-chloro-4-(trifluoromethyl)pyridine-2-carboxamide] gave an IC50 of 320 nM. Still for that read-out and setting: as for `CCn1cc(-c2cccc(C(NC(=O)c3ccc(F)cc3C(F)(F)F)C3(O)CCC(F)(F)CC3)c2)cn1` (single isomer, unassigned) [Compound 216, N-{(4,4-difluoro-1-hydroxycyclohexyl)[3-(1-ethyl-1H-pyrazol-4-yl)phenyl]methyl}-4-fluoro-2-(trifluoromethyl)benzamide], the figure is 5500 nM. Under “human GlyT1”, `CS(=O)(=O)c1cc(C(F)(F)F)ccc1C(=O)NC(c1cccc(Cl)c1F)C1(O)CCC(F)(F)CC1` (single isomer, unassigned) [Compound 402, N-[(3-chloro-2-fluorophenyl)(4,4-difluoro-1-hydroxycyclohexyl)methyl]-2-(methylsulfonyl)-4-(trifluoromethyl)benzamide] came in with an IC50 of 450 nM.

Turning to `O=C(NC(c1ccccc1Cl)[C@]1(O)CC[C@@H](F)CC1)c1cc(C(F)(F)F)ncc1Cl` (single isomer, unassigned) [Compound 366, 5-chloro-N-[(2-chlorophenyl)(cis-4-fluoro-1-hydroxycyclohexyl)methyl]-2-(trifluoromethyl)pyridine-4-carboxamide], the midpoint of inhibition (GlyT1), the IC50, lay at 320 nM.

In the case of `Cc1cccc(Cl)c1C(=O)NC(c1cccc(F)c1Cl)[C@]1(O)CC[C@@H](F)CC1` (single isomer, unassigned) [Compound 299, 2-chloro-N-[(2-chloro-3-fluorophenyl)(cis4-fluoro-1-hydroxycyclohexyl)methyl]-6-methylbenzamide], the IC50 (GlyT1) is 610 nM. `O=C(NC(c1cccc(Br)c1)C1(O)CCC(F)CC1)c1nccc(C(F)(F)F)c1Cl` (stereo not drawn) [Compound 96, N-[(3-bromophenyl)(4-fluoro-1-hydroxycyclohexyl)methyl]-3-chloro-4-(trifluoromethyl)pyridine-2-carboxamide] returned an IC50 (GlyT1) of 250 nM.

As to `O=C(NC(c1cccc(F)c1Cl)[C@]1(O)CC[C@@H](F)CC1)c1cccc(C(F)(F)F)c1-n1nccn1` (single isomer, unassigned) [Compound 379, N-[(2-chloro-3-fluorophenyl)(cis-4-fluoro-1-hydroxycyclohexyl)methyl]-2-(2H-1,2,3-triazol-2-yl)-3-(trifluoromethyl)benzamide], half-maximal inhibition (GlyT1) (IC50) was put at 790 nM. For the setting “GlyT1”, `O=C(NC(c1cccc(F)c1Cl)[C@]1(O)CC[C@@H](F)CC1)c1cccc(C(F)(F)F)c1F` (single isomer, unassigned) [Compound 245, N-[(2-chloro-3-flurophenyl)(cis-4-fluoro-1-hydroxycyclohexyl)methyl]-2-fluoro-3-(trifluoromethyl)benzamide] showed an IC50 of 990 nM. In the case of `CCn1cc(-c2cccc(C(NC(=O)c3cccc(C(F)(F)F)c3Cl)C3(O)CCCC3)c2)cn1` (stereo not drawn) [Compound 1, 2-chloro-N-{[3-(1-ethyl-1H-pyrazol-4-yl)phenyl](1-hydroxycyclopentyl)methyl}-3-(trifluoromethyl)benzamide], for the setting “GlyT1”, the IC50 worked out at 110 nM. On to `Cc1cccc(C(=O)NC(c2cccc(F)c2Cl)[C@]2(O)CC[C@@H](F)CC2)c1Cl` (single isomer, unassigned) [Compound 287, 2-chloro-N-[(2-chloro-3-fluorophenyl)(cis-4-fluoro-1-hydroxycyclohexyl)methyl]-3-methylbenzamide], for which, for the setting “GlyT1”, the IC50 was 960 nM.
